Assay results published in patent publication US8431563B2 (priority 2010, dated 2013).

Key:
GK-GKRP [1] = target: T1, GK-GKRP (Homo sapiens, UniProt Q14397); test: biochemical; conditions: GK-GKRP IC50 (Binding)
T1 sequence (Q14397 1-625): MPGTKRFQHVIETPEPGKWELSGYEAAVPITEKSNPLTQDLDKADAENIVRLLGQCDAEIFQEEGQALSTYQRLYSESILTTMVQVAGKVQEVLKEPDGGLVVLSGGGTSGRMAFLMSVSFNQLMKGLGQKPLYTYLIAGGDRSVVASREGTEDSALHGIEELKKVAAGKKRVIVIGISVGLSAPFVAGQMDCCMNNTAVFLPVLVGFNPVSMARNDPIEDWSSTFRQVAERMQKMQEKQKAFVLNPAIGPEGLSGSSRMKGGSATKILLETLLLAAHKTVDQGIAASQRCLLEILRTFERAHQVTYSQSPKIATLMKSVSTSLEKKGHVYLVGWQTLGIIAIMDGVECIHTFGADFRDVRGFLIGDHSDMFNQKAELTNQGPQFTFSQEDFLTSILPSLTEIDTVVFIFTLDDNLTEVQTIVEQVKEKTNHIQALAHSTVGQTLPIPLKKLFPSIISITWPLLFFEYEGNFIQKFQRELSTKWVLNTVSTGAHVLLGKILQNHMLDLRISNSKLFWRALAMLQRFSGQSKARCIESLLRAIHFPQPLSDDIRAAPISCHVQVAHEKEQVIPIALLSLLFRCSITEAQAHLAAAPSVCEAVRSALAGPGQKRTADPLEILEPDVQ

GK-GKRP [2] = target: T1, GK-GKRP; test: biochemical

SMILES	IC50 (GK-GKRP [1]) [nM]	EC50 (GK-GKRP [2]) [nM]
O=S(=O)(c1ccccc1)c1ccc(-c2ncc(C(O)(C(F)(F)F)C(F)(F)F)cn2)cc1 [Example 263, 1,1,1,3,3,3-hexafluoro-2-(2-(4-(phenylsulfonyl)phenyl)-5-pyrimidinyl)-2-propanol]	484	478
CCC(C)S(=O)(=O)NC[C@H]1CN(S(=O)(=O)c2cccs2)CCN1c1ccc(C(C)(O)C(F)(F)F)cc1 (stereo partly drawn) [Example 238, N-(((2S)-4-(2-thiophenylsulfonyl)-1-(4-(2,2,2-trifluoro-1-hydroxy-1-methylethyl)phenyl)-2-piperazinyl)methyl)-2-butanesulfonamide]	204	270
CC(C)S(=O)(=O)NC[C@H]1CN(S(=O)(=O)c2cccs2)CCN1c1ccc(C(C)(O)C(F)(F)F)cc1 (mixture of isomers) [Example 237, N-(((2S)-4-(thiophen-2-ylsulfonyl)-1-(4-(1,1,1-trifluoro-2-hydroxypropan-2-yl)phenyl)piperazin-2-yl)methyl)propane-2-sulfonamide]	335	632
Cc1cc(S(=O)(=O)c2ccc(N)nc2)ccc1-c1ncc(C(O)(C(F)(F)F)C(F)(F)F)cn1 [Example 268, 2-(2-(4-((6-amino-3-pyridinyl)sulfonyl)-2-methylphenyl)-5-pyrimidinyl)-1,1,1,3,3,3-hexafluoro-2-propanol]	103	232
Nc1ccc(S(=O)(=O)c2ccc(-c3ncc(C(O)(C(F)(F)F)C(F)(F)F)cn3)cn2)cn1 [Example 267, 2-(2-(6-((6-amino-3-pyridinyl)sulfonyl)-3-pyridinyl)-5-pyrimidinyl)-1,1,1,3,3,3-hexafluoro-2-propanol]	103	113
CC#CC1CN(S(=O)(=O)c2ccc(N)nc2)CCN1c1ncc(C(C)(O)C(F)(F)F)cn1 (single isomer, unassigned) [Example 251 Second Eluting Peak from Set One, 2-(2-(4-((6-amino-3-pyridinyl)sulfonyl)-2-(1-propyn-1-yl)-1-piperazinyl)-5-pyrimidinyl)-1,1,1-trifluoro-2-propanol]	9	
CC1(C)C(=O)NCCN1C[C@H]1CN(S(=O)(=O)c2ccc(N)nc2)CCN1c1ncc(C(O)(C(F)(F)F)C(F)(F)F)cn1 [Example 235, 4-(((2S)-4-((6-amino-3-pyridinyl)sulfonyl)-1-(5-(2,2,2-trifluoro-1-hydroxy-1-(trifluoromethyl)ethyl)-2-pyrimidinyl)-2-piperazinyl)methyl)-3,3-dimethyl-2-piperazinone]	8	13
CC(C)CS(=O)(=O)N(C[C@H]1CN(S(=O)(=O)c2cccs2)CCN1c1ccc(C(C)(O)C(F)(F)F)cc1)c1cccnc1 (mixture of isomers) [Example 253, 2-methyl-N-3-pyridinyl-N-(((2R)-4-(2-thiophenylsulfonyl)-1-(4-(2,2,2-trifluoro-1-hydroxy-1-methylethyl)phenyl)-2-piperazinyl)methyl)-1-propanesulfonamide]	35	
CC(C)N1C(=O)N(C[C@H]2CN(S(=O)(=O)c3cccs3)CCN2c2ccc(C(C)(O)C(F)(F)F)cc2)C(C)(C)C1=O (mixture of isomers) [Example 242, 5,5-dimethyl-3-(1-methylethyl)-1-(((2S)-4-(2-thiophenylsulfonyl)-1-(4-(2,2,2-trifluoro-1-hydroxy-1-methylethyl)phenyl)-2-piperazinyl)methyl)-2,4-imidazolidinedione]	19	29
CC#CC1CN(S(=O)(=O)c2ccc(N)nc2)CCN1c1ncc(C(C)(O)C(F)(F)F)cn1 (single isomer, unassigned) [Example 251 Second Eluting Peak from Set Two, 2-(2-(4-((6-amino-3-pyridinyl)sulfonyl)-2-(1-propyn-1-yl)-1-piperazinyl)-5-pyrimidinyl)-1,1,1-trifluoro-2-propanol]	15300	
CC(O)(c1ccc(N2CCN(S(=O)(=O)c3cccs3)C[C@@H]2CN2C(=O)NC(=O)C23CCC3)cc1)C(F)(F)F (mixture of isomers) [Example 236, 5-(((2S)-4-(2-thiophenylsulfonyl)-1-(4-(2,2,2-trifluoro-1-hydroxy-1-methylethyl)phenyl)-2-piperazinyl)methyl)-5,7-diazaspiro[3.4]octane-6,8-dione]	379	363
Nc1ccc(S(=O)(=O)N2CCN(c3ncc(C(O)(C(F)(F)F)C(F)(F)F)cn3)C(C#CC3CC3)C2)cn1 (stereo not shown) [Example 246, 2-(2-(4-((6-amino-3-pyridinyl)sulfonyl)-2-(cyclopropylethynyl)-1-piperazinyl)-5-pyrimidinyl)-1,1,1,3,3,3-hexafluoro-2-propanol]	191	314
CC(O)(c1ccc(N2CCN(S(=O)(=O)c3cccs3)C[C@@H]2CN2CCNC(C(F)(F)F)C2)cc1)C(F)(F)F (single isomer, unassigned) [Example 270 Peak 1]	251	
CC#CC1CN(S(=O)(=O)c2ccc(N)nc2)CCN1c1ncc(C(C)(O)C(F)(F)F)cn1 (mixture of isomers) [Example 251, 2-(2-(4-((6-amino-3-pyridinyl)sulfonyl)-2-(1-propyn-1-yl)-1-piperazinyl)-5-pyrimidinyl)-1,1,1-trifluoro-2-propanol]	36	
CC(O)(c1ccc(N2CCN(S(=O)(=O)c3cccs3)C[C@@H]2CNS(=O)(=O)c2ccc(F)cc2)cc1)C(F)(F)F (mixture of isomers) [Example 254, 4-fluoro-N-(((2S)-4-(2-thiophenylsulfonyl)-1-(4-(2,2,2-trifluoro-1-hydroxy-1-methylethyl)phenyl)-2-piperazinyl)methyl)benzenesulfonamide]	323	
Nc1ccc(S(=O)(=O)N2CCN(c3ncc(C(O)(C(F)(F)F)C(F)(F)F)cn3)[C@@H](CN3C4CCC3COC4)C2)cn1 [Example 271, 2-(2-((2S)-4-((6-amino-3-pyridinyl)sulfonyl)-2-(3-oxa-8-azabicyclo[3.2.1]oct-8-ylmethyl)-1-piperazinyl)-5-pyrimidinyl)-1,1,1,3,3,3-hexafluoro-2-propanol]	3	
